# Columns and labels:
# [1] = tested on: RD cells; assay: Cell viability assay (alamarBlue); type: cell-based, human; settings: 10 µM, 12 h
# Protocol: (§1) Firstly, we performed cell viability assay to evaluate the cytotoxicity profile of the 19 hits. Cells seeded overnight were treated with the hit compounds at 10 µM. […] Anti-EV-A71 activity of AGP-253 had been illustrated and discussed previously. We were particularly interested in ZAF-46 and ZAF-47 as they belonged to the same series bearing novel 14-quinolinoxy and 17-hydro-8,9-olefin modifications (Figure 2b) that could potentially open up new targets for EV-A71 therapeutics. Additional cell viability assays were performed for ZAF-46 and ZAF-47 at different concentrations to identify the low cytotoxic concentrations for downstream post-treatment assays. For post-treatment assays, cells seeded overnight were infected with EV-A71 and subsequently treated with ZAF-46 and ZAF-47 at different concentrations. […] Treatment with ZAF-46 led to 1.4 log reduction at 10 µM and 2.4 log reduction at 20 µM (Figure 2c) while treatment with ZAF-47 led to 0.8 log reduction at 5 µM, 1.1 log reduction at 10 µM and 2.1 log reduction at 20 µM (Figure 2d). CC50 and IC50 for both compounds were determined and used to derive their SI (Table 2). ZAF-47 was selected for further downstream analysis due to its higher SI value which indicate higher pharmacological value for clinical use.
# (§2) To determine the cytotoxicity profiles of the hits, cell viability assay was performed. Seeded 96-well plates, with 2 × 10^4 RD cells per well, were incubated overnight at 37 °C with 5% CO2. Different concentrations of drug hits, diluted by reduced serum DMEM, were used to treat the seeded cells for 12 h at 37 °C with 5% CO2. Reduced serum DMEM, was employed as the negative control and 0.1% DMSO as the vehicle control for this step. Subsequently, the supernatant was replaced with alamarBlue^TM Cell Viability Reagent (Thermo Fisher Scientific, Waltham, MA, USA) (100 µL), diluted 10-fold in reduced serum DMEM, and incubated for 3 h at 37 °C with 5% CO2. Fluorescence intensity in each well was measured at 570 nm excitation wavelength and 600 nm emission wavelength in each well by the Infinite^TM 200 series microplate reader (Tecan, Männedorf, Switzerland) and normaliszd with the negative control to determine the relative cell viability.
# [2] = tested on: EV-A71; assay: Immunofluorescence-based preliminary screen of EV-A71-infected RD cells; type: cell-based, human enterovirus A71 (EV-A71) strain 41; settings: EV-A71-infected RD cells (MOI = 1)
# From the text: The screening assay was built using an immunofluorescence approach that was previously established and validated, with DAPI-stained nuclei accounting for total cell count and FITC-stained EV-A71 accounting for infected cell count upon EV-A71 infection and compound treatment. Both cell counts would then be used to calculate percentage infection and percentage inhibition to identify for hits. Before the screening platform can be employed to screen for potential antivirals, its robustness has to be appraised. In this study, Z-factor was calculated to assess the robustness of the screening platform. Firstly, seeded RD cells were either infected with EV-A71 (Multiplicity of Infection of 1) or mock-infected with media. The cells were then fixed, stained and imaged 12 h post-infection (hpi). The IFA images were analyzed with the Cell Profiler software to determine the infection rate of each well. Between the virus-infected and mock-infected wells, a clear distinction in infection rates could be observed (Figure 1a). […] In this case, the Z-factor, measured at 0.818, was indicative of a highly robust screening platform for high-throughput screening. The constructed screening platform was then employed to screen the compound library made up of 344 chemically synthesized novel compounds analogous to andrographolide. The compounds were screened at 10 µM with IFA images taken and analyzed to identify for hits. Treatment with 0.1% DMSO was used as vehicle control.
# Seeded 96-well plates (Corning Inc., Corning, NY, USA), with 2 × 10^4 RD cells per well, were incubated overnight at 37 °C with 5% CO2. The seeded cells were then infected with EV-A71 (50 µL per well, MOI = 1) for 1 h at 37 °C with 5% CO2. The EV-A71-infected cells were then treated with the compound library at a final concentration of 10 µM for 12 h at 37 °C with 5% CO2. Treatment with 0.1% DMSO was used as vehicle control. Following treatment, cells were fixed with 100 µL of methanol (Sinopharm Chemical, Shanghai, China) for 15 min at −20°C and rinsed with 100 µL of 1x PBS for three times before performing indirect immunofluorescence assay (IFA). Anti-EV-A71 VP2 1° antibodies, MAB979 (Merck Millipore, Burlington, VT, USA), diluted 500-fold in PBS, was incubated with the fixed cells for 1 h at 37 °C. Cells were then rinsed thrice with PBS and incubated with anti-mouse FITC 2° antibodies (Merck Millipore), diluted 200-fold in PBS, for 1 h at 37 °C. After which, the cells were rinsed thrice with PBS before staining with DAPI (Sigma-Aldrich) at room temperature for 15 min. Cells were then rinsed thrice and preserved in 100 µL of PBS before imaging with the Operetta High-Content Imaging System and the Harmony High-Content Imaging and Analysis Software (Perkin Elmer, Waltham, MA, USA). Images of stained cells were captured with the DAPI and FITC fluorescence filters, from a pre-determined central position of each well and processed with the Cell Profiler software. […] The percentage infection (PI) for each well was calculated using the formula: Infected cell count/Total cell count × 100%. The percentage inhibition for each well was calculated using the formula PI0− PI/PI0 × 100% where PI0 refers to the percentage infection of wells treated with the vehicle control while PI refers to the percentage infection of wells treated with the compounds.
# [3] = tested on: replication-competent EV-A71 RNA replicon; assay: Nano-luciferase reporter assay, replication-competent replicon; type: cell-based, human enterovirus A71 (EV-A71); settings: RD cells, 12 h; ZAF-47 different concentrations, GuHCl 1 mM
# Protocol: To identify specifically which of these two intrinsically linked processes that ZAF-47 inhibits, we transfected RD cells with EV-A71 RNA replicons that were either replication-competent or replication-defective and subsequently treated them with different concentrations of ZAF-47 for 12 h before detecting for luminescence. Both forms of replicons were previously established and validated. The replication-competent replicon is capable of self-replicating as it contains an intact 3D region that encodes for 3D polymerase (3D^pol) responsible for RNA replication (Figure 4c). […] In contrast, the replication-defective replicon contains a 3D region with 159 nucleotide deletion which would produce a non-functional 3D protein and impair RNA replication (Figure 4c). As such, cells containing the replication-defective replicon express luciferase upon IRES translation of the original replicons only. The transfected cells were also treated with negative control, DMSO and positive controls, guanidine hydrochloride (GuHCl) and cycloheximide (CHX), a RNA replication-specific inhibitor [50] and a general translation inhibitor [51] respectively.
# Seeded 96-well plates, with 2 × 10^4 RD cells per well, were incubated overnight at 37 °C with 5% CO2. […]
# [4] = tested on: EV-A71; assay: Post-treatment assay with viral plaque assay; type: cell-based, human enterovirus A71 (EV-A71) strain 41; settings: for reduction in viral titre: post-treatment, 12 hpi
# Protocol: as §1
# To determine the inhibitory profiles of the hits, post treatment assay was performed. Seeded 24-well plates, with 1.5 × 10^5 RD cells per well, were incubated overnight at 37 °C with 5% CO2. The seeded cells were infected with EV-A71 (100 µL per well, MOI = 1) for 1 h at 37 °C with 5% CO2 and then rinsed with 1 mL of PBS twice. Different concentrations of the hits were used to treat the infected cells for 12 h at 37 °C with 5% CO2. At 12 hpi, the plates were frozen and thawed for 2 cycles (−80°C; 37 °C) before collection of supernatants to measure the viral titres via viral plaque assay.
# Measurement of the viral titres from collected supernatants was derived from viral plaque assays. To do this, 24-well plates, seeded with 2.4 × 10^5 RD cells per well, were used in plaque assays for EV-A71, EV-D68, Echo7, CV-A6, CV-A16 and CV-A24 while 24-well plates, seeded with 1.2 × 10^5 Vero cells per well, were used in plaque assays for CV-B5. Seeded cells were incubated overnight at 37 °C with 5% CO2. Viral supernatants were diluted from 10^−1 to 10^−7 in reduced serum DMEM before infecting the cells with a volume of 100 µL for 1 h at 37 °C with 5% CO2 (33 °C instead for EV-D68). Cells were rinsed twice with PBS before overlaying with 1 mL of reduced serum DMEM containing 0.5% agarose (Vivantis, Shah Alam, Malaysia). Cells infected with Echo7 supernatants were incubated for 2 days, cells infected with CV-A24 and CV-B5 supernatants were incubated for 3 days and cells infected with EV-A71, CV-A6, CV-A16 and EV-D68 supernatants were incubated for 4 days for the formation of plaques. Subsequently, the cells were fixed and stained overnight with 4% paraformaldehyde and 1% crystal violet (Sigma-Aldrich). Subsequent formation of viral plaques was counted manually to quantify the viral titre in PFU/mL
# [5] = Cell viability assay (alamarBlue); type: cell-based, human; settings: human, RD cells
# Protocol: as §1, §2
# [6] = set-up: method as in PMID 34816382; settings: cited from earlier work
# [7] = set-up: method as in PMID 34816382; settings: cited from earlier work; remark: listed apart in the source
smiles,measurement,setting,value
"CC1(CO)C(O)CCC2(C)C(CC=C3C(=O)OCC3Oc3ccc([N+](=O)[O-])cc3Cl)C3(CCC12)CO3 (stereo not drawn) [AGP-253, 14S-(2′-Chloro-4′-Nitrophenoxy)-8R/S, 17-Epoxy Andrographolide]",cytotoxicity,[1],low cytotoxicity
same,Inhibition Rate (%),"[2]; 10 µM, 12 h",98.91%
"Cl.N=C(N)N [GuHCl, guanidine hydrochloride, reference compound]","luminescence, replication-competent replicon",[3],significant decrease in luminescence
"CC(=O)OC[C@]1(C)[C@H](O)CC[C@@]2(C)C(C/C=C3/C(=O)OC[C@@H]3Oc3cccc4cccnc34)=C(C)CC[C@H]12 [ZAF-46, (14β)-(8′-Quinolinoxy)-9-dehydro-17-hydro-19-acetoxy-andrographolide]",reduction in viral titre,[4]; 10 µM,1.4 log
same,reduction in viral titre,[4]; 20 µM,2.4 log
same,IC50,"[4]; Enterovirus A, EVA71, EV-A71-infected RD cells, MOI = 1, 12 h treatment, viral plaque assay",4.44 µM
same,Selectivity Index (SI),[4]; SI = CC50/IC50,6.73
same,CC50 at 12 h,[5],29.9 µM
same,cytotoxicity,[1],low cytotoxicity
same,Nuclei Count,"[2]; 10 µM, 12 h, 0.1% DMSO wells 998",1037
same,inhibition at 10 µM,"[2]; Enterovirus A, EVA71, 12 h, read-out: Inhibition Rate (%)",96%
C=C1CC[C@@H]2[C@](C)(CO)[C@H](O)CC[C@@]2(C)[C@@H]1C/C=C1/C(=O)OC[C@H]1O [andrographolide],bioavailability,[6],poor bioavailability
same,water solubility,[7],low water solubility

# Source: publication PMC8880313, “Discovery of Novel Andrographolide Derivatives as Antiviral Inhibitors against Human Enterovirus A71” (Pharmaceuticals, 2022)
